# Measured values: US20060166319A1 (priority 2004, published 2006)
# How the values were obtained:
# [1] = NMR H/D exchange studies; format: physicochemical; settings: rt
# Procedure: Compound 7 (˜4 mg, ˜10 μmol) was dissolved in CD3OD (0.75 mL), and D2O (2 drops) was added. The reaction mixture was kept at rt and monitored by NMR (400 MHz). […] NaOD (30% w/w in D2O, 2 drops) was then added, and the solution monitored by NMR. […] After 25 h, the C5 proton peak completely disappeared.
# To rule out the possibility that the loss of the C5 proton peak was due to decomposition, the resulting mixture was evaporated at rt under reduce pressure, and the residue was redissolved in CH3OH and allowed to stir for 1 day. The mixture was then evaporated to dryness in vacuo, and redissolved in CD3OD. The NMR spectrum was quickly taken, and the C5 proton peak was again observed. As before, the C5 proton peak slowly disappeared over a 1-day period.
# To evaluate the importance of the imine bond on the acidity of the C5 proton, proline was dissolved in 0.75 mL CD3OD and 0.20 mL D2O and treated with […].
# [2] = Stability studies of compound 8 to NaOH, LiOH and TFA (TLC); format: physicochemical; settings: rt
# Procedure: Stability Studies of Compound (8) to NaOH. NaOH (6 M, 20 μL, 0.12 mmol) was added to a solution of compound 8 (0.15 M, 100 μL, 0.015 mmol). The resulting mixture was allowed to react at rt over 3 days, during which the degradation of compound 8 was monitored by a ninhydrin TLC assay (CHCl3-MeOH—NH4OH(aq)=2:2:1).
# Stability Studies of Compound (8) to LiOH. Compound 8 (21.9 mg, 84 μmol) was dissolved in water (2 mL) and LiOH.H2O (84.5 mg, 2.0 mmol) was added. This mixture was allowed to react at rt. While initially only starting material was observed by TLC (MeOH-EtOAc=4:1, Rf=0.26), after 24 h two new bands (Rf=0.10, 0.02) appeared. After 5 days, the solution was evaporated to dryness at rt, redissolved in MeOH (0.5 mL), and purified on chromatography silica gel. […] The other new band appears to be a mixture of species based on its NMR and MS data.
# Stability Studies of Compound (8) to TFA. Compound 8 (21.7 mg, 0.083 mmol) was dissolved in MeOH (2 mL) and TFA (200 μL) was added. After 1 h, one new band (MeOH-EtOAc=2:1; Rf=0.22) was observed by TLC. The mixture was allowed to react to completion for 2 days at rt. The resulting mixture was evaporated to dryness, dissolved in MeOH (0.5 mL), and subjected to chromatography on silica gel. […] The peak for the C2 imine proton is absent, and the peak for the C5 proton is either absent or shifted.
# [3] = molecular target: T1, His6-PylS (Methanosarcina barkeri, UniProt Q6WRH6); assay: Gel-shift aminoacylation assay with N-terminally His-tagged PylS; format: biochemical
# T1 construct: made in house; host or cells: E. coli (inferred from the control with untransformed E. coli)
# Procedure: Aminoacylation assay in acid-urea gels. […] Following incubation at 37° C. for 5 to 30 minutes, the reaction was terminated by addition of an equal volume of 2× loading dye (0.3 M sodium acetate, 8 M urea, pH 5.0) and charged and uncharged tRNA species analysed by acid-urea acrylamide gel electrophoresis following the methods outlined in Jester et al. Samples were electrophoresed in 14% polyacrylamide gels buffered with a 0.3 M sodium acetate-7 M urea solution, pH 5.0, at 50 volts and 4° C. for 24 hours. The same buffer without urea was used in the electrode chambers, and was replaced with fresh buffer every 6-8 hours. Finished gels were transblotted for 2 hours at 40 volts in 4° C. in a blotting solution of 10 mM Tris-acetate, 5 mM sodium acetate, and 0.5 mM EDTA, pH 8.0. The blot was then cross-linked by ultraviolet radiation (15000 μJ/cm2 per side) then prehybrized in 0.25 M sodium phosphate buffer, pH 7.2, and 5.7% SDS for at least 30 minutes. In order to detect charged and uncharged tRNACUA a 72 base oligonucleotide complementary to full length of tRNACUA was labeled with γ-^32P ATP and polynucleotide kinase. […] Radioactivity on the blot was imaged and analyzed using a STORM Phosphorimager (Amersham Biosciences).
# [4] = molecular target: T2, PylS-His6 (Methanosarcina barkeri, UniProt Q6WRH6); assay: Aminoacylation of tRNACUA in acid-urea gels (gel-shift, northern blot); format: biochemical; settings: for aminoacylation of tRNA^lys in the M. acetivorans tRNA pool: tRNA^lys instead of tRNACUA
# T2 construct: made in house; host or cells: E. coli BL21 (DE3)
# Excerpt: Recombinant PylS-His6 was purified by Ni affinity chromatography from lysates of Escherichia coli expressing the recombinant Methanosarcina barkeri pylS gene modified so as to add a carboxy-terminal hexahistidine tag to the gene product. The tRNA pool extracted from Methanosarcina acetivorans or tRNACUA transcribed in vitro was used in charging experiments. Charged and uncharged tRNA species were separated by electrophoresis in a denaturing acid-urea polyacrylamide gel and tRNACUA was specifically detected by northern blotting with an oligonucleotide probe.
# The reaction was terminated after 5-30 min at 37° C. with an equal volume of 0.3 M sodium acetate, 8 M urea pH 5.0. Charged and uncharged tRNA were separated by acid-urea acrylamide gel electrophoresis, blotted to nitrocellulose and probed with a 5μ ^32P-end-labelled, 72-base oligonucleotide complementary to tRNA^CUA. Radioactivity was analysed with a STORM Phosphorimager (Amersham Biosciences).
# Aminoacylation assay in acid-urea gels. […] Following incubation at 37° C. for 5 to 30 minutes, the reaction was terminated by addition of an equal volume of 2× loading dye (0.3 M sodium acetate, 8 M urea, pH 5.0) and charged and uncharged tRNA species analysed by acid-urea acrylamide gel electrophoresis following the methods outlined in Jester et al. Samples were electrophoresed in 14% polyacrylamide gels buffered with a 0.3 M sodium acetate-7 M urea solution, pH 5.0, at 50 volts and 4° C. for 24 hours. The same buffer without urea was used in the electrode chambers, and was replaced with fresh buffer every 6-8 hours. Finished gels were transblotted for 2 hours at 40 volts in 4° C. in a blotting solution of 10 mM Tris-acetate, 5 mM sodium acetate, and 0.5 mM EDTA, pH 8.0. The blot was then cross-linked by ultraviolet radiation (15000 μJ/cm2 per side) then prehybrized in 0.25 M sodium phosphate buffer, pH 7.2, and 5.7% SDS for at least 30 minutes. In order to detect charged and uncharged tRNACUA a 72 base oligonucleotide complementary to full length of tRNACUA was labeled with γ-^32P ATP and polynucleotide kinase. The probe was hybridized with the blot overnight at room temperature, then agitated at 22° C. for 5 minute in 10 mM sodium citrate, 150 mM NaCl, 1% SDS, pH 7.0, then agitated with two changes of 5 mM sodium citrate, 75 mM sodium chloride, 1% SDS, pH 7.0, for 5 minutes each. Radioactivity on the blot was imaged and analyzed using a STORM Phosphorimager (Amersham Biosciences).
# [5] = molecular target: T2, PylS-His6; assay: Pyrrolysine dependent pyrophosphate:ATP exchange; format: biochemical; parameters: apparent Vmax: unit not given here
# Procedure: As a prerequisite of tRNA aminoacylation, an aminoacyl-adenylate and pyrophosphate are formed from the amino acid and ATP by an aminoacyl-tRNA synthetase. This reversible activation reaction can be assayed by the isotopic exchange of ^32P-pyrophosphate into ATP dependent on the addition of the cognate amino acid for the aminoacyl-tRNA synthetase in question.
# The pyrophosphate exchange reaction was essentially performed following the method of Cole and Schimmel. All reactions were performed in duplicate at 37° C. The 100 to 200 μl reactions contained (unless noted) 0.3 to 1 μM PylSHis6. […] The specific activity of the radiolabel was adjusted from 4 to 10 dpm/pmol). The concentration of protein was 0.3 to 1 μM. At specific times, 25 μl aliquots were removed and quenched in 500 μl of a stop solution containing 1.6% (w/v) activated acid-washed charcoal (Sigma Chemical Co., St. Louis, Mo.), 80 mM sodium tetrapyrophosphate, and 3.5% (v/v) perchloric acid. Samples were filtered through Whatman GF/C glass-fiber filters and then the filter was washed three times with 5 ml of 40 mM sodium tetrasodium pyrophosphate solution containing 1.7% perchloric acid (v/v) and once with 5 ml 100% ethanol. Filters were dried at 80° C. for 5 minutes then placed in 20 ml scintillation vials containing 10 ml of Ultima Gold F scintillation cocktail (PerkinElmer), shaken once, and counted in a liquid scintillation analyzer. Identical reactions without amino acid, ATP, or enzyme were also set up as negative controls in duplicate. […] One substrate was kept constant at a concentration higher than its respective apparent Km value.
# [6] = system: E. coli BL21 (DE3) expressing pylT, pylS and mtmB1; assay: Pyrrolysine-dependent amber suppression (mtmB1 UAG readthrough, anti-MtmB immunoblot); format: cell-based; settings: strain expressing pylT, 1 mM amino acid, 4 h induction
# Excerpt: As a reporter of UAG translation as a sense codon, we introduced the mtmB1 gene into E. coli BL21 (DE3). […] Plasmids were constructed bearing combinations of mtmB1, pylS and/or pylT under the control of the T7 promoter, and transformed into E. coli. […] Total cellular proteins from each strain were then separated by SDS-polyacrylamide-gel electrophoresis and mtmB1 gene products were detected by subsequent immunoblotting with polyclonal antibody specific for purified M. barkeri MtmB.
# To test for amber suppression, overnight cultures were grown in Luria-Bertani broth (3 ml) with 100 μg ml^−1 ampicillin. Subsequently, 200 μl was inoculated into 1 ml fresh medium and grown to a D600 of 0.6. […] The mtmB1 gene products in equivalent amounts of lysates were then analysed by immunoblotting of a SDS 12.5% polyacrylamide gel with affinity-purified rabbit anti-MtmB antibody^6. The Rainbow Molecular Weight markers (Amersham Biosciences) were used.
# To test for amber suppression, overnight cultures of a strain bearing one of the plasmids were grown in LB broth (3 mL) with 100 ug/ml final ampicillin. Subsequently, 200 μl of each culture was inoculated into 1 ml of fresh LB medium with ampicillin, and grown to an A600 of approximately 0.6. […]
# [7] = system: E. coli BW25141(DE3) transformed with pDLGUS; assay: beta-glucuronidase activity from uidA gene with UAG codon replacing AAA286; format: cell-based
# Excerpt: In order to avoid interference by the residue uidA gene, we employed a strain with most of uidA deleted, E. coli BW25141(DE3). This strain was transformed with pDLGUS, a variant of the pEC03 plasmid in which the mtmB1 gene was removed and the uidA gene introduced in its place.
# T2 sequence (Q6WRH6 whole entry): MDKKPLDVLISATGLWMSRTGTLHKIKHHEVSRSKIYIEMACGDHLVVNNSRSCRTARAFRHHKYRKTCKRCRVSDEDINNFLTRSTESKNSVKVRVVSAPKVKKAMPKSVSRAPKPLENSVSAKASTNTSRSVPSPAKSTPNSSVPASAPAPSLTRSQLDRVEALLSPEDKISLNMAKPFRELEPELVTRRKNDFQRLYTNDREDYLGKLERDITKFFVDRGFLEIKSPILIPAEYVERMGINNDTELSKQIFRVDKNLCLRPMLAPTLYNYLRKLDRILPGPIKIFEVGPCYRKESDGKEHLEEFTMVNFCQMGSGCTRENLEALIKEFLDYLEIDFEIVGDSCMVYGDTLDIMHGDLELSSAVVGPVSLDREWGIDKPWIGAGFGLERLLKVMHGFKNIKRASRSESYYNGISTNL
# T1 sequence (Q6WRH6 whole entry): as above
smiles,measurement,setting,value
"COC(=O)[C@H](CCCCNC(=O)[C@@H]1N=CC[C@H]1C)NC(=O)C(F)(F)F [Compound 7, Nα-Trifluoroacetyl-L-pyrrolysine methyl ester]",change in NMR spectrum,"[1]; CD3OD with D2O, 3-day period, no base",No change was observed
same,time until C5 proton peak completely disappeared (H/D exchange),[1]; CD3OD/D2O with NaOD,25 h
"C[C@@H]1CC=N[C@H]1C(=O)NCCCC[C@H](N)C(=O)[O-].[Li+] [Compound 8, L-Pyrrolysine lithium salt]",degradation in LiOH observed by TLC,"[2]; LiOH in water, after 24 h",two new bands
same,degradation in NaOH monitored by ninhydrin TLC,"[2]; NaOH 6 M 20 μL added to 0.15 M solution, over 3 days",One new band
same,degradation in TFA observed by TLC,"[2]; TFA in MeOH, after 1 h",one new band
"NCCCC[C@H](N)C(=O)O [lysine, reference compound]",lysyl- or pyrrolysyl-tRNA synthetase activity,[3],no lysyl-tRNA synthetase activity was detectable
same,formation of charged tRNACUA species,"[4]; 20 canonical amino acids each at 50 μM, or only 50 μM lysine, no pyrrolysine",not formed
same,aminoacylation of tRNA^lys in the M. acetivorans tRNA pool,[4],does not aminoacylate
same,isotopic exchange into ATP above background,"[5]; incubation as long as 30 min, canonical 20 amino acids each at 100 μM, or 1 mM lysine",no detectable isotopic exchange
same,UAG readthrough: expression of 50-kDa MtmB,[6],could not be replaced
"C[C@@H]1CC=N[C@H]1C(=O)NCCCC[C@H](N)C(=O)O [pyrrolysine, lysine in amide linkage with (4R,5R)-4-methyl-pyrroline-5-carboxylate]",lysyl- or pyrrolysyl-tRNA synthetase activity,[3],does have pyrrolysyl-tRNA synthetase activity
same,maximal conversion of deacylated tRNACUA to charged species,"[4]; deacylated M. acetivorans cellular tRNA pool, incubation with pyrrolysine, ATP and PylS-His6",50%
same,maximum of tRNACUA transcribed in vitro aminoacylated,"[4]; in vitro transcribed tRNACUA, synthetic pyrrolysine, ATP-dependent",43%
same,aminoacylation of tRNA^lys in the M. acetivorans tRNA pool,[4],does not aminoacylate
same,increase of beta-glucuronidase activity,[7]; 1 mM synthetic pyrrolysine versus absence of pyrrolysine,approximately 100 fold
same,beta-glucuronidase activity,[7]; induced with IPTG in the presence of 1 mM synthetic pyrrolysine,4. umol/min·mg protein
same,Km,"[5]; 37° C., pH 7.2, other substrate held constant, read-out: apparent Km",53 µM
same,apparent Vmax,"[5]; exchange reaction, 37° C.",120
same,UAG readthrough: expression of 50-kDa MtmB,[6],large amounts of 50-kDa MtmB
